Data taken from publication PMC12007089, “Applying Isothermal Titration Calorimetry and Saturation Transfer Difference-NMR to Study the Mode of Interaction of Flavan-3-ols with α-Amylase to Understand Their Impact on Starch Hydrolysis” (Journal of Agricultural and Food Chemistry, 2025).

Target: T1, porcine pancreatic α-amylase (Sus scrofa, UniProt P00690)
T1 sequence (P00690 16-511): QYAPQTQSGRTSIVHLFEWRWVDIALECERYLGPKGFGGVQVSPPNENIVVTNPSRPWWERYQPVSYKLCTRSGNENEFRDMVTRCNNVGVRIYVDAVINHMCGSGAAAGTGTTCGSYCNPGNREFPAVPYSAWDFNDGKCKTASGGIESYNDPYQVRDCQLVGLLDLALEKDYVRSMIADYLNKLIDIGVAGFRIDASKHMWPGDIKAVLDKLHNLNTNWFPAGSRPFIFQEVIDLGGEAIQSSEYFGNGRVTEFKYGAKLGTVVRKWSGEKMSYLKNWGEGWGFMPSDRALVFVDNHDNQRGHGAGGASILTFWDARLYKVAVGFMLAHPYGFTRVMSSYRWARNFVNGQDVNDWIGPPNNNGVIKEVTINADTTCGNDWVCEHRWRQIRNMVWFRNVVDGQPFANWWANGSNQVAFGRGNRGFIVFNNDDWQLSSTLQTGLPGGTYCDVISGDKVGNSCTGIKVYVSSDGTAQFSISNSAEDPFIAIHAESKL
Assay: 1H NMR of aggregation of PC C1 with α-amylase
Format: binding
Settings: for adsorption of PC C1 on the surface of α-amylase: 1 mM (0.75 μmol) PC C1; for PC C1 signal intensities after addition of α-amylase: 275 K
Protocol: ^1H NMR experiments were conducted to investigate the aggregation of PC C1 with α-amylase. First, 1 mM PC C1 (0.75 μmol) was measured, and then, α-amylase was added at concentrations of 10 and 20 μM. The relative decrease in intensity of PC C1 signals in the range of 6.866–7.040 ppm (E2′, H6′, B2′, B5′, E5′, E6′, and H5′) was used to calculate the proportion of PC C1 aggregated with α-amylase. Blank measurements were performed with 10 and 20 μM α-amylase dissolved in the same buffer without PC C1. Data were acquired using a Bruker Avance III HD 600 MHz NMR spectrometer equipped with a 5 mm BBFO probe (Smart Probe) with ATM and a z-gradient. Spectra were recorded at 275 K (2 °C) in 0.1 M phosphate buffer/0.04 M NaCl phosphate buffer, pH 7, in D2O:H2O (9:1). The pulse program zgesgp was used with a spectral width of 16 ppm, and all spectra were recorded with 512 scans, an acquisition time of 1.70 s, and a recycle delay (D1) of 1 s. Data were analyzed using TopSpin software (version 4.4.1, Bruker).

Oc1cc(O)c2c(c1)O[C@H](c1ccc(O)c(O)c1)[C@H](O)[C@H]2c1c(O)cc(O)c2c1O[C@H](c1ccc(O)c(O)c1)[C@H](O)[C@H]2c1c(O)cc(O)c2c1O[C@H](c1ccc(O)c(O)c1)[C@H](O)C2 [PC C1, procyanidin C1]
ratio of PC C1 to α-amylase (10 μM α-amylase): 26 | adsorption of PC C1 on the surface of α-amylase (10 μM α-amylase): 0.20 µmol | ratio of PC C1 to α-amylase (20 μM α-amylase): 18 | adsorption of PC C1 on the surface of α-amylase (20 μM α-amylase): 0.28 µmol | PC C1 signal intensities after addition of α-amylase (1 mM PC C1, 10 μM α-amylase): 73% | PC C1 signal intensities after addition of α-amylase (1 mM PC C1, 20 μM α-amylase): 63%
